Read-outs that look alike come from different tables or passages of the source.
Test system: DNIC efficiency (diffuse noxious inhibitory control)
Conditions: 60 mg once a day for one week, healthy volunteers
Source text: According to an exemplary testing procedure, the DNIC can be assessed as the difference of pain ratings to ‘test stimulus’ applied before and during the immersion of the contralateral hand into hot water bath (conditioning stimulus) as elaborated infra. Exemplary test stimulus of a 30 seconds period with contact heat, such as 30×30 mm^2 thermode TSA-2001 available from Medoc, can be delivered for instance on the non-dominant forearm at the individually-predetermined temperature that evoked pain intensity of 60 on a 0-100 NPS (more details in Granot et al., 2006). The stimulus temperature can be raised by 2° C./sec from 32° C. to the destination temperature. Fifteen minutes after the completion the first pre-immersion test, the patient is asked to immerse his/her dominant hand for 1′ into the water bath of 46.5° C. (Neto Cooling Bath CBN 8-30, Allerod, Denemark), while second application of the ‘test stimulus’ is repeated during last 30 seconds of immersion. […]
DNIC paradigm, tested at baseline and after each of the treatments, consisted of administration of two painful stimuli, a test-pain delivered by contact heat, and a ‘conditioning’ pain induced by hot water immersion of the other hand. The DNIC efficiency was calculated as the difference between pain perceptions induced by the test-pain when given alone, and when given concomitantly with the conditioning one.

Q: `CNCC[C@H](Oc1cccc2ccccc12)c1cccs1` [Duloxetine] was tested. Which “Duloxetine treatment DNIC score” value (high pre-treatment DNIC group (pre-treatment DNIC score 32.50), NS vs. pre-treatment) did it give?
A: 29.26

Q: What about the “Duloxetine treatment DNIC score” value (low pre-treatment DNIC group (pre-treatment DNIC score 0.15), P<0.05 vs. pre-treatment (Tukey)) of the same compound?
A: 19.35
